# Measured values as given in US11065343B2, “Compound bearing beta-galactoside-introduced self-immolative linker” (IntoCell Inc., priority 2016, dated 2021).
# Read-outs that look alike come from different tables or passages of the source. *1 amine or outer side, *2 acyl side, *3 side chain or, on linkers, in order; H or OH if unused. Where a SMILES comes first, the peptide text is derived from it. [ ]: non-standard residue; d: D form. ξ: configuration not given here. Dil(5ξ) = CCC(C)[C@@H]([C@@H](CC(=O)[*:2])OC)N(C)[*:1]; Dolaproine = CO[C@@H]([C@@H]1CCCN1)[C@@H](C)C(=O)O; NMeV = CN[C@H](C(=O)O)C(C)C; ξF = NC(Cc1ccccc1)C(=O)O
# Key:
# KB cancer cell line = assay: In vitro cytotoxicity of ligand-drug conjugates (MTT); type: cell-based, human; conditions: for IC50: read-out: Cell cytotoxicity IC50
# Method: KB cancer cell line was seeded 30,000 cells per well of a 96-well plate, and after the culture for 24 hours, the drug MMAF-OMe was treated with a concentration of 0.0097˜10 nM (4-fold serial dilution), ligand-drug conjugate (B) prepared in Comparative Example 2 and ligand-drug conjugate (1) prepared in Example 2 were treated with a concentration of 0.0244-100 nM (4-fold serial dilution). The number of live cell after 72 hours was quantified by using 3-(4,5-dimethylthiazol-2-yl)-2,5-diphenyltetrazolium bromide (MTT) dye as chromogenic reagent. And then formazan reduced by oxidoreductase present in live cells were dissolved in DMSO, and quantified. […] Therefore, in the case of compound (1) to which galactoside linker is introduced, it could be confirmed that it has better efficacy compared with compound (B) to which glucuronide linker is introduced.
# folate receptor = molecular target: T1, folate receptor (Homo sapiens, UniProt P15328); assay: Binding affinity of ligand-drug conjugate to folic acid receptor (competition with FA-Cy5 tracer, polarized light)
# T1 construct: Soluble plasma membrane from KB human cancer cells were isolated; endogenous in cells; host or cells: KB human cancer cells (plasma membrane protein extract, Abcam kit ab65400)
# Method: Soluble plasma membrane from KB human cancer cells were isolated using plasma membrane protein extraction kit (ab65400) (Abcam company). […] After the preincubation for 15 minutes, FA-Cy5 tracer prepared in Preparation Example 10 was treated with a concentration of 1 nM, and after the reaction for 2 hours at 37° C., synergy2 microplate reader (BioTek company) (ex/em=635/688 nm) was used to measure polarized light.
# beta-galactosidase = molecular target: T2, beta-galactosidase (Escherichia coli, UniProt P00722); assay: in vitro; type: biochemical, E. coli; conditions: Escherichia coli; beta-galactosidase, PBS buffer, 37° C., HPLC; read-out: hydrolysis half-life by enzyme
# T2 construct: purchased Sigma G4155
# Method: (§1) In order to identify the reactivity of ligand-drug conjugate (1) of Example 2 to β-galactosidase, the difference of the reactivity to R-glucuronidase between it and ligand-drug conjugate (B) of Comparative Example 2 as a comparative material was compared.
# (§2) Ligand-drug conjugate (1) of Example 2 and ligand-drug conjugate (B) of Comparative Example 2 were respectively dissolved in DMSO to a concentration of 9 mM, and then each of them was mixed with PBS buffer solution to prepare 500 μM of solution.
# (§3) An enzyme reaction solution for ligand-drug conjugate (1) of Example 2 was prepared by adding 1 mg/mL enzyme solution (10 μL) to the mixed solution comprising PBS buffer solution (440 μL) and 500 μM ligand-drug conjugate (1) solution (50 μL) of Example 2, then the reaction was initiated in 37° C. of the incubator.
# (§4) Beta-galactosidase enzyme (Sigma G4155) in E. coli was used for the reaction mixture comprising ligand-drug conjugate (1) of Example 2 and beta-glucuronidase enzyme (Sigma G7396) in E. coli was used for the reaction mixture comprising ligand-drug conjugate (B) of Comparative Example 2 for the comparison experiment.
# (§5) That is, in the case of compound (1) to which galactoside linker is introduced, it could be confirmed that it has more rapid hydrolysis rate 6 times or more, relative to comparison compound (B) to which glucuronide linker is introduced.
# [1] = molecular target: T3, Beta-galactosidase enzyme (Sigma G4155) in E. coli (Escherichia coli, UniProt P00722); assay: in vitro; type: biochemical; conditions: (1) with beta-galactosidase versus (B) with beta-glucuronidase
# T3 construct: purchased Sigma G4155
# Method: as §1, §2, §3, §4, §5
# T1 sequence (P15328 25-234): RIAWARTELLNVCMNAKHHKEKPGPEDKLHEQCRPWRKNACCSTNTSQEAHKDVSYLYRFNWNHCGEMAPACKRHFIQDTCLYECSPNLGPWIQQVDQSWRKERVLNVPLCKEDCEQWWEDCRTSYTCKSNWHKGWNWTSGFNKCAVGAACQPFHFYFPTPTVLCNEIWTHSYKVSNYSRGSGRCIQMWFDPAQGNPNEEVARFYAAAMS
# T3 sequence (P00722 2-1024): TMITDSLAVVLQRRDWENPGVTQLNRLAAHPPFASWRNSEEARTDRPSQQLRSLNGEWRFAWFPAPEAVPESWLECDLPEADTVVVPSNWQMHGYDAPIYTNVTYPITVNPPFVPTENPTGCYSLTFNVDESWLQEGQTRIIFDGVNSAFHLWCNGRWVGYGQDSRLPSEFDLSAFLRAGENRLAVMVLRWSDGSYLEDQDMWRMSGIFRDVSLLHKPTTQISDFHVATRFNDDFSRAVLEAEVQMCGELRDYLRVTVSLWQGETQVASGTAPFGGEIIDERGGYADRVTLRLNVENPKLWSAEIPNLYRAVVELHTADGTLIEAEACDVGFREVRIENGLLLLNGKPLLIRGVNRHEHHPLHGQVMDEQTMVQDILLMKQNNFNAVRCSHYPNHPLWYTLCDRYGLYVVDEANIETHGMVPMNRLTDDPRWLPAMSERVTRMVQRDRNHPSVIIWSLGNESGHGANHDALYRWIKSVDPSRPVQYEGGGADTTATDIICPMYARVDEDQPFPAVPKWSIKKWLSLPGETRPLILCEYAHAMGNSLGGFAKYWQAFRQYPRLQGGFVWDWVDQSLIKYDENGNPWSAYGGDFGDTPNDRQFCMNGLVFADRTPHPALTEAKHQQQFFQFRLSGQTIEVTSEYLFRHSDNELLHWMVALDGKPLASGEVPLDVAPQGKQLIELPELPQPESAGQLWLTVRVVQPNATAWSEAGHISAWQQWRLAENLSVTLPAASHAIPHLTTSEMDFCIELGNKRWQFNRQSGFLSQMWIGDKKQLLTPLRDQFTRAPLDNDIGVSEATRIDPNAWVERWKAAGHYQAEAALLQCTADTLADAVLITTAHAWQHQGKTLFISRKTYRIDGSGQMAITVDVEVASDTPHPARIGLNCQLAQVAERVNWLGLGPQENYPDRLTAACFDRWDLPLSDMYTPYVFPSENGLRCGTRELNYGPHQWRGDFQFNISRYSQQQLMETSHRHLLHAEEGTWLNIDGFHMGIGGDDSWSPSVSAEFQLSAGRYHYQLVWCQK
# T2 sequence (P00722 2-1024): as above
SMILES,"IC50 (KB cancer cell line; Homo sapiens, KB, 72 h)",IC50 (folate receptor),binding affinity (IC50) better than (B) (folate receptor; relative to ligand-drug conjugate (B)),"IC50 (KB cancer cell line; KB cell, 72 hours, MTT)","cytotoxicity better than conjugate (B) (KB cancer cell line; KB cell, relative to conjugate (B))",half-life at 50 µM (beta-galactosidase),more rapid hydrolysis rate relative to comparison compound (B) [1]
"CCC(C)[C@@H]([C@@H](CC(=O)N1CCC[C@H]1[C@H](OC)[C@@H](C)C(=O)NC(Cc1ccccc1)C(=O)OC)OC)N(C)C(=O)[C@@H](NC(=O)[C@@H](NC)C(C)C)C(C)C (stereo partly shown) [MMAF-OMe, reference compound] (H-[NMeV]V[Dil(5ξ)][Dolaproine][ξF]-OMe)",0.38 ± 0.17 nM,–,–,–,–,–,–
CCC(C)[C@@H]([C@@H](CC(=O)N1CCC[C@H]1[C@H](OC)[C@@H](C)C(=O)N[C@@H](Cc1ccccc1)C(=O)O)OC)N(C)C(=O)[C@@H](NC(=O)[C@H](C(C)C)N(C)C(=O)OCc1ccc(O[C@@H]2O[C@H](CO)[C@H](O)[C@H](O)[C@H]2O)c(C(=O)NCCOCCOCCOCc2cn(CCC(=O)N[C@@H](CCCCN)C(=O)NCCOCCOCCNC(=O)CC[C@H](NC(=O)c3ccc(NCc4cnc5nc(N)[nH]c(=O)c5n4)cc3)C(=O)O)nn2)c1)C(C)C (stereo partly shown) [ligand-drug conjugate (1)],–,17.5 nM,2.5 fold,0.44 ± 0.12 nM,about twofold,34.7 min,≥ 6 times
